# Experimental data published in the supplement of paper PMC10307832.
# Assays:
# Test in all cases: relative viability (nuclei count vs DMSO), 5 days (fraction); higher = more cells survive
# NCI-H1915 = tested on: NCI-H1915
# Summary of the method: (§1)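 Relative viability is defined as nuclei in treated wells over nuclei in vehicle wells. Duplicate plates were run and medians reported. Lung cancer cell lines in 1536-well plates were dosed by pin tool one day after seeding, with one drug or with a fixed anchor-drug dose plus five library-drug doses (not always all listed) in √10 steps, and nuclei were counted after 5 days.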
# NCI-H3122 = tested on: NCI-H3122
# Summary of the method: as §1
# ChaGo-K-1 = tested on: ChaGo-K-1
# Summary of the method: as §1
# NCI-H1755 = tested on: NCI-H1755
# Summary of the method: as §1
# ABC-1 = tested on: ABC-1
# Summary of the method: as §1
# HCC-15 = tested on: HCC-15
# Summary of the method: as §1
# EMC-BAC-2 = tested on: EMC-BAC-2
# Summary of the method: as §1
# HCC-78 = tested on: HCC-78
# Summary of the method: as §1
# LXF-289 = tested on: LXF-289
# Summary of the method: as §1
# NCI-H322M = tested on: NCI-H322M
# Summary of the method: as §1
# NCI-H2126 = tested on: NCI-H2126
# Summary of the method: as §1
# NCI-H441 = tested on: NCI-H441
# Summary of the method: as §1
# HOP-62 = tested on: HOP-62
# Summary of the method: as §1
# NCI-H1666 = tested on: NCI-H1666
# Summary of the method: as §1
# CAL-12T = tested on: CAL-12T
# Summary of the method: as §1
# NCI-H2085 = tested on: NCI-H2085
# Summary of the method: as §1
# NCI-H1975 = tested on: NCI-H1975
# Summary of the method: as §1
# NCI-H358 = tested on: NCI-H358
# Summary of the method: as §1
# EPLC-272H = tested on: EPLC-272H
# Summary of the method: as §1
# NCI-H2023 = tested on: NCI-H2023
# Summary of the method: as §1
# UMC-11 = tested on: UMC-11
# Summary of the method: as §1
# COR-L 105 = tested on: COR-L 105
# Summary of the method: as §1
smiles,measurement,setting,value
COc1nc(C)cnc1NS(=O)(=O)c1cccnc1-c1ccc(-c2nnco2)cc1 [Zibotentan] + NC(=O)Nc1cc(-c2cccc(F)c2)sc1C(=O)N[C@H]1CCCNC1 [AZD7762] (partner 0.2 µM),relative viability,NCI-H1915; first compound 0.08 µM,0.836
same,relative viability,NCI-H1915; first compound 0.253 µM,0.649
same,relative viability,NCI-H1915; first compound 0.8 µM,0.597
same,relative viability,NCI-H1915; first compound 2.53 µM,0.683
same,relative viability,NCI-H3122; first compound 0.08 µM,1.01
same,relative viability,NCI-H3122; first compound 0.253 µM,0.999
same,relative viability,NCI-H3122; first compound 0.8 µM,0.915
same,relative viability,NCI-H3122; first compound 2.53 µM,0.966
same,relative viability,ChaGo-K-1; first compound 0.08 µM,0.912
same,relative viability,ChaGo-K-1; first compound 0.253 µM,0.842
same,relative viability,ChaGo-K-1; first compound 0.8 µM,0.756
same,relative viability,ChaGo-K-1; first compound 2.53 µM,0.927
same,relative viability,NCI-H1755; first compound 0.08 µM,0.452
same,relative viability,NCI-H1755; first compound 0.253 µM,0.464
same,relative viability,NCI-H1755; first compound 0.8 µM,0.387
same,relative viability,NCI-H1755; first compound 2.53 µM,0.471
same,relative viability,ABC-1; first compound 0.08 µM,0.711
same,relative viability,ABC-1; first compound 0.253 µM,0.86
same,relative viability,ABC-1; first compound 0.8 µM,0.765
same,relative viability,ABC-1; first compound 2.53 µM,0.843
same,relative viability,HCC-15; first compound 0.08 µM,1.3
same,relative viability,HCC-15; first compound 0.253 µM,1.28
same,relative viability,HCC-15; first compound 0.8 µM,1.18
same,relative viability,HCC-15; first compound 2.53 µM,1.26
same,relative viability,EMC-BAC-2; first compound 0.08 µM,1.08
same,relative viability,EMC-BAC-2; first compound 0.8 µM,1.08
same,relative viability,EMC-BAC-2; first compound 2.53 µM,1.16
same,relative viability,HCC-78; first compound 0.08 µM,0.712
same,relative viability,HCC-78; first compound 0.253 µM,0.475
same,relative viability,HCC-78; first compound 0.8 µM,0.664
same,relative viability,HCC-78; first compound 2.53 µM,0.474
same,relative viability,LXF-289; first compound 0.08 µM,1.07
same,relative viability,LXF-289; first compound 0.253 µM,1.05
same,relative viability,LXF-289; first compound 0.8 µM,1.06
same,relative viability,LXF-289; first compound 2.53 µM,1.08
same,relative viability,NCI-H322M; first compound 0.08 µM,0.605
same,relative viability,NCI-H322M; first compound 0.253 µM,0.551
same,relative viability,NCI-H322M; first compound 0.8 µM,0.364
same,relative viability,NCI-H322M; first compound 2.53 µM,0.605
same,relative viability,NCI-H2126; first compound 0.08 µM,0.986
same,relative viability,NCI-H2126; first compound 0.253 µM,0.987
same,relative viability,NCI-H2126; first compound 0.8 µM,0.915
same,relative viability,NCI-H2126; first compound 2.53 µM,1.04
same,relative viability,NCI-H441; first compound 0.08 µM,1.3
same,relative viability,NCI-H441; first compound 0.253 µM,1.08
same,relative viability,NCI-H441; first compound 0.8 µM,0.994
same,relative viability,NCI-H441; first compound 2.53 µM,1.12
same,relative viability,HOP-62; first compound 0.08 µM,0.593
same,relative viability,HOP-62; first compound 0.253 µM,0.63
same,relative viability,HOP-62; first compound 0.8 µM,0.479
same,relative viability,HOP-62; first compound 2.53 µM,0.615
same,relative viability,NCI-H1666; first compound 0.08 µM,0.866
same,relative viability,NCI-H1666; first compound 0.253 µM,0.795
same,relative viability,NCI-H1666; first compound 0.8 µM,0.898
same,relative viability,NCI-H1666; first compound 2.53 µM,0.791
same,relative viability,CAL-12T; first compound 0.08 µM,0.604
same,relative viability,CAL-12T; first compound 0.253 µM,0.498
same,relative viability,CAL-12T; first compound 0.8 µM,0.526
same,relative viability,CAL-12T; first compound 2.53 µM,0.666
same,relative viability,NCI-H2085; first compound 0.08 µM,1.06
same,relative viability,NCI-H2085; first compound 0.253 µM,0.953
same,relative viability,NCI-H2085; first compound 0.8 µM,0.826
same,relative viability,NCI-H2085; first compound 2.53 µM,0.959
same,relative viability,NCI-H1975; first compound 0.08 µM,0.767
same,relative viability,NCI-H1975; first compound 0.253 µM,0.626
same,relative viability,NCI-H1975; first compound 0.8 µM,0.728
same,relative viability,NCI-H1975; first compound 2.53 µM,0.659
same,relative viability,NCI-H358; first compound 0.08 µM,0.48
same,relative viability,NCI-H358; first compound 0.253 µM,0.405
same,relative viability,NCI-H358; first compound 0.8 µM,0.383
same,relative viability,NCI-H358; first compound 2.53 µM,0.667
same,relative viability,EPLC-272H; first compound 0.08 µM,0.217
same,relative viability,EPLC-272H; first compound 0.253 µM,0.261
same,relative viability,EPLC-272H; first compound 0.8 µM,0.168
same,relative viability,EPLC-272H; first compound 2.53 µM,0.259
COc1nc(C)cnc1NS(=O)(=O)c1cccnc1-c1ccc(-c2nnco2)cc1 [Zibotentan] + Nc1ncn([C@H]2C[C@H](O)[C@@H](CO)O2)c(=O)n1 [Decitabine] (partner 2 µM),relative viability,NCI-H1915; first compound 0.08 µM,0.248
same,relative viability,NCI-H1915; first compound 0.253 µM,0.262
same,relative viability,NCI-H1915; first compound 0.8 µM,0.27
same,relative viability,NCI-H1915; first compound 2.53 µM,0.257
same,relative viability,NCI-H3122; first compound 0.08 µM,0.472
same,relative viability,NCI-H3122; first compound 0.253 µM,0.379
same,relative viability,NCI-H3122; first compound 0.8 µM,0.357
same,relative viability,NCI-H3122; first compound 2.53 µM,0.377
same,relative viability,ChaGo-K-1; first compound 0.08 µM,0.512
same,relative viability,ChaGo-K-1; first compound 0.253 µM,0.493
same,relative viability,ChaGo-K-1; first compound 0.8 µM,0.508
same,relative viability,ChaGo-K-1; first compound 2.53 µM,0.55
same,relative viability,NCI-H2023; first compound 0.08 µM,0.245
same,relative viability,NCI-H2023; first compound 0.253 µM,0.211
same,relative viability,NCI-H2023; first compound 0.8 µM,0.203
same,relative viability,NCI-H2023; first compound 2.53 µM,0.214
same,relative viability,UMC-11; first compound 0.08 µM,0.576
same,relative viability,UMC-11; first compound 0.253 µM,0.532
same,relative viability,UMC-11; first compound 0.8 µM,0.634
same,relative viability,UMC-11; first compound 2.53 µM,0.697
same,relative viability,NCI-H1755; first compound 0.08 µM,0.737
same,relative viability,NCI-H1755; first compound 0.253 µM,0.616
same,relative viability,NCI-H1755; first compound 0.8 µM,0.8
same,relative viability,NCI-H1755; first compound 2.53 µM,0.732
same,relative viability,ABC-1; first compound 0.08 µM,0.829
same,relative viability,ABC-1; first compound 0.253 µM,1.12
same,relative viability,ABC-1; first compound 0.8 µM,0.939
same,relative viability,ABC-1; first compound 2.53 µM,1.06
same,relative viability,HCC-15; first compound 0.08 µM,0.607
same,relative viability,HCC-15; first compound 0.253 µM,0.538
same,relative viability,HCC-15; first compound 0.8 µM,0.727
same,relative viability,HCC-15; first compound 2.53 µM,0.696
same,relative viability,COR-L 105; first compound 0.08 µM,0.634
same,relative viability,COR-L 105; first compound 0.253 µM,0.609
same,relative viability,COR-L 105; first compound 0.8 µM,0.711
same,relative viability,COR-L 105; first compound 2.53 µM,0.615
same,relative viability,EMC-BAC-2; first compound 0.08 µM,1.01
same,relative viability,EMC-BAC-2; first compound 0.8 µM,0.968
same,relative viability,EMC-BAC-2; first compound 2.53 µM,1.01
same,relative viability,HCC-78; first compound 0.08 µM,0.795
same,relative viability,HCC-78; first compound 0.253 µM,0.564
same,relative viability,HCC-78; first compound 0.8 µM,0.68
same,relative viability,HCC-78; first compound 2.53 µM,0.656
same,relative viability,LXF-289; first compound 0.08 µM,0.357
same,relative viability,LXF-289; first compound 0.253 µM,0.346
same,relative viability,LXF-289; first compound 0.8 µM,0.409
same,relative viability,LXF-289; first compound 2.53 µM,0.367
same,relative viability,NCI-H322M; first compound 0.08 µM,0.74
same,relative viability,NCI-H322M; first compound 0.253 µM,0.679
same,relative viability,NCI-H322M; first compound 0.8 µM,0.733
same,relative viability,NCI-H322M; first compound 2.53 µM,0.856
same,relative viability,NCI-H2126; first compound 0.08 µM,0.617
same,relative viability,NCI-H2126; first compound 0.253 µM,0.602
same,relative viability,NCI-H2126; first compound 0.8 µM,0.599
same,relative viability,NCI-H2126; first compound 2.53 µM,0.551
same,relative viability,NCI-H441; first compound 0.08 µM,0.244
same,relative viability,NCI-H441; first compound 0.253 µM,0.273
same,relative viability,NCI-H441; first compound 0.8 µM,0.264
same,relative viability,NCI-H441; first compound 2.53 µM,0.225
same,relative viability,HOP-62; first compound 0.08 µM,0.169
same,relative viability,HOP-62; first compound 0.253 µM,0.19
same,relative viability,HOP-62; first compound 0.8 µM,0.209
same,relative viability,HOP-62; first compound 2.53 µM,0.207
same,relative viability,NCI-H1666; first compound 0.08 µM,0.71
same,relative viability,NCI-H1666; first compound 0.253 µM,0.685
same,relative viability,NCI-H1666; first compound 0.8 µM,0.745
same,relative viability,NCI-H1666; first compound 2.53 µM,0.56
same,relative viability,NCI-H2085; first compound 0.08 µM,0.566
same,relative viability,NCI-H2085; first compound 0.253 µM,0.54
same,relative viability,NCI-H2085; first compound 0.8 µM,0.592
same,relative viability,NCI-H2085; first compound 2.53 µM,0.56
same,relative viability,NCI-H1975; first compound 0.08 µM,0.565
same,relative viability,NCI-H1975; first compound 0.253 µM,0.384
same,relative viability,NCI-H1975; first compound 0.8 µM,0.403
same,relative viability,NCI-H1975; first compound 2.53 µM,0.377
same,relative viability,NCI-H358; first compound 0.08 µM,0.196
same,relative viability,NCI-H358; first compound 0.253 µM,0.139
same,relative viability,NCI-H358; first compound 2.53 µM,0.222
same,relative viability,EPLC-272H; first compound 0.08 µM,0.41
same,relative viability,EPLC-272H; first compound 0.253 µM,0.304
same,relative viability,EPLC-272H; first compound 0.8 µM,0.366
same,relative viability,EPLC-272H; first compound 2.53 µM,0.394
